For test [1], the system named is Mus musculus. Nature of the test: Antihyperglycemic activity in STZ-induced diabetic Swiss albino mouse model assessed as very low-density lipoprotein cholesterol level at 30 mg/kg, po by biochemical analysis (reference value: 27.77 +/- 0.15 mg/dl). Type of test: functional.
In test [2] the test system is Mus musculus. The test is described as follows: Antihyperglycemic activity in STZ-induced diabetic Swiss albino mouse model assessed as fasting blood glucose at 30 mg/kg, po measured after 5 days by glucose meter analysis (reference value: […] +/- 63.77 mg/dl). The following applies: time 5 day. Format: functional.
Test [3] concerns Mus musculus. The test is described as follows: Antihyperglycemic activity in STZ-induced diabetic Swiss albino mouse model assessed as high-density lipoprotein cholesterol level at 30 mg/kg, po by biochemical analysis (reference value: 43.33 +/-[…]). Type of test: functional.
In test [4] the test system is Mus musculus. Nature of the test: Antihyperglycemic activity in STZ-induced diabetic Swiss albino mouse model assessed as triglyceride level at 30 mg/kg, po by biochemical analysis (reference value: 139.33 +/- 0.88 mg/dl). Format: functional.
In test [5] the test system is Mus musculus. The test is described as follows: Antihyperglycemic activity in STZ-induced diabetic Swiss albino mouse model assessed as total cholesterol level at 30 mg/kg, po by biochemical analysis (reference value: 184.33 +/- […]). Format: functional.
Test [6] relates to Mus musculus. The test is described as follows: Antihyperglycemic activity in STZ-induced diabetic Swiss albino mouse model assessed as low-density lipoprotein cholesterol level at 30 mg/kg, po by biochemical analysis (reference value: 113.33 +/- 0.35 mg/dl). Format: functional.
Test [7] relates to Mus musculus. Nature of the test: Antihyperglycemic activity in STZ-induced diabetic Swiss albino mouse model assessed as fasting blood glucose at 30 mg/kg, po measured after 10 days by glucose meter analysis (reference value: 435.2 +/-46.89 mg/dl). The following applies: time 10 day. Format: functional.
Test [8] has as its system Mus musculus. The test is described as follows: Antihyperglycemic activity in STZ-induced diabetic Swiss albino mouse model assessed as fasting blood glucose at 30 mg/kg, po measured after 15 days by glucose meter analysis (reference value: 452.6 +/-48.94 mg/dl). The following applies: time 15 day. Type of test: functional.
The test system of test [9] is Mus musculus. Nature of the test: Antihyperglycemic activity in STZ-induced diabetic Swiss albino mouse model assessed as fasting blood glucose at 30 mg/kg, po and measured immediately by glucose meter analysis (reference value: 365 +/-54.25 mg/dl). Format: functional.
The target in test [10] is T1, Peroxisome proliferator-activated receptor delta (Homo sapiens, UniProt Q03181).
T1 sequence (Q03181 whole entry): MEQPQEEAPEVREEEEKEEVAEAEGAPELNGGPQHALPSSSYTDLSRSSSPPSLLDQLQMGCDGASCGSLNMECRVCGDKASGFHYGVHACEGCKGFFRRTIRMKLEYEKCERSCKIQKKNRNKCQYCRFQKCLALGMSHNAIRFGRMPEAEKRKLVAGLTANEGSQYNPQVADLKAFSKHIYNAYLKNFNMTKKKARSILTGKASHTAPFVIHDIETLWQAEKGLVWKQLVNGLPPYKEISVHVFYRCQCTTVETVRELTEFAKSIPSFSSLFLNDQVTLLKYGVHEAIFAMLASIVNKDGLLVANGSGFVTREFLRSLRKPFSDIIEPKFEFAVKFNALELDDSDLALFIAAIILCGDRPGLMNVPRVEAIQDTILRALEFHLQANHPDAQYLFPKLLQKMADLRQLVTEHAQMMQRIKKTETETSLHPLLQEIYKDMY
Nature of the test: Partial agonist activity at N-terminal Gal4-fused human PPARdelta LBD transfected in human HepG2 cells assessed as receptor transactivation incubated for 20 hrs by luciferase based luminometric assay. Format: cell-based.

Test [11] has as its target T2, Peroxisome proliferator-activated receptor alpha (Homo sapiens, UniProt Q07869).
T2 sequence (Q07869 whole entry): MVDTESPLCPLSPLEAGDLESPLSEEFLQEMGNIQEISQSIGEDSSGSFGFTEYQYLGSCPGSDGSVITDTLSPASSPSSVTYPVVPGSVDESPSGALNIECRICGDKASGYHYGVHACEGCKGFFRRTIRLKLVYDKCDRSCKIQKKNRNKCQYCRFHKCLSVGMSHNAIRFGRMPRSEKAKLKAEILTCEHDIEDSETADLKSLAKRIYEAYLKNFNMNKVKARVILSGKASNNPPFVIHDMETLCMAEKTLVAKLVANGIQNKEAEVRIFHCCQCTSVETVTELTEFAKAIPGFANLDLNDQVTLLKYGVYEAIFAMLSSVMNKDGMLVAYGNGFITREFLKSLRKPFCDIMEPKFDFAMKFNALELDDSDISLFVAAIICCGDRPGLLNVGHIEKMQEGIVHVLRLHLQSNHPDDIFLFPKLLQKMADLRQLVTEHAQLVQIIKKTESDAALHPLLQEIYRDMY
The test is described as follows: Partial agonist activity at N-terminal Gal4-fused human PPARalpha LBD transfected in human HepG2 cells assessed as receptor transactivation incubated for 20 hrs by luciferase based luminometric assay. Type of test: cell-based.

The next test concerns HepG2. The test is described as follows: Inhibition of lipid accumulation in oleic acid induced human HepG2 cells at 10 uM pretreated with oleic-acid for 24 hrs followed by compound addition and measured after 72 hrs by Oil Red O staining based analysis. Type of test: functional, cell-based.
The subject of test [12] is C2C12. The test is described as follows: Inhibition of mitochondrial pyruvate carrier in mouse C2C12 cells assessed as effect on oxygen consumption rate at 10 uM incubated for 24 hrs by Seahorse XF pro analyzer. Format: functional, cell-based.
In test [13] the test system is C2C12. The test is described as follows: Inhibition of mitochondrial pyruvate carrier in mouse C2C12 cells assessed as increase of extracellular acidification rate at 10 uM incubated for 24 hrs by Seahorse XF pro analyzer. Type of test: functional, cell-based.
Test [14] has as its system C2C12. Nature of the test: Inhibition of mitochondrial pyruvate carrier in mouse C2C12 cells assessed as increase in OCR/ECAR ratio at 10 uM incubated for 24 hrs by Seahorse XF pro analyzer. Format: functional, cell-based.
Test [15] deals with C2C12. Nature of the test: Inhibition of mitochondrial pyruvate carrier in mouse C2C12 cells assessed as effect on ATP production at 10 uM incubated for 24 hrs by Seahorse XF pro analyzer. Format: functional, cell-based.
Test [16] concerns the target T3, Peroxisome proliferator-activated receptor gamma (Homo sapiens, UniProt P37231).
T3 sequence (P37231 whole entry): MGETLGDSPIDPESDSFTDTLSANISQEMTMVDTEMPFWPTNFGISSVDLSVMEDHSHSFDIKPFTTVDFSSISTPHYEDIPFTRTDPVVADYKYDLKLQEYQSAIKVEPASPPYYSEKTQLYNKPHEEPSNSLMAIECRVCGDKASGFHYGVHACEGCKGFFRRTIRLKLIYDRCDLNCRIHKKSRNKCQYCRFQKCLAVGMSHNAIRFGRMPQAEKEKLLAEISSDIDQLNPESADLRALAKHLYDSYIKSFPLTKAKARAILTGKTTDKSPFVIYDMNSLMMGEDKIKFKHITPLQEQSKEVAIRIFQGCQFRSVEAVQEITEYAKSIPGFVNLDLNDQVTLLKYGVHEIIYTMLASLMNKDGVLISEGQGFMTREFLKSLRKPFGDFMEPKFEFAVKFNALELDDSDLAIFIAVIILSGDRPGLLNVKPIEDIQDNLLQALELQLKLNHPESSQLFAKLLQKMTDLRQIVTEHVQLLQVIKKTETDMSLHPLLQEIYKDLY
The test is described as follows: Partial agonist activity at N-terminal Gal4-fused human PPARgamma LBD transfected in human HepG2 cells assessed as receptor transactivation incubated for 20 hrs by luciferase based luminometric assay. Format: cell-based.

Each structure is given as a SMILES string. Calls of active or inactive are those of the source. The calls are words filed in the database; no cut-off is given here.

For the compound `CCc1ccc(CCOc2ccc(CC3SC(=O)NC3=O)cc2)nc1` (stereo not drawn) [PIOGLITAZONE], the Activity came to 19.33 mg/dL in the test with Mus musculus [1]; 351 mg/dL in the test with Mus musculus [2]; 19.67 mg/dL with Mus musculus [3]; 98.33 mg/dL in the test with Mus musculus [4]; 88.67 mg/dL in the test with Mus musculus [5]; 20.5 mg/dL in the test with Mus musculus [6]. The Activity with Mus musculus [7] was 248 mg/dL; with Mus musculus [8], 224.2 mg/dL; in the test on Mus musculus [9], 441.2 mg/dL.

`CCCc1c(OCCCOc2ccc(OCC(=O)O)cc2)ccc(C(C)=O)c1O`: the EC50 – broadly, the concentration needed to bring the measured effect to its halfway point – in [10] was found to be 1600 nM.

As for `C[C@@H](Oc1ccc(-c2cccc3ccccc23)cc1)C(=O)O`, the EC50 in [11] came to 2300 nM.

As to `CN(CCOc1ccc(CC2SC(=O)NC2=O)cc1)c1ccccn1` (stereo not drawn), the inhibition result in the test with HepG2 was “Active”. The inhibition result with C2C12 [12], with C2C12 [13], in the test with C2C12 [14] and in the test on C2C12 [15] was “inactive” each time.

On to `C[C@H](Oc1ccc(-c2cccc3ccccc23)cc1)C(=O)O`, for which, in test [11], the EC50 came to 1800 nM.

As for `CCC(Oc1ccc(-c2cccc3ccccc23)cc1)C(=O)O` (racemic), the EC50 in [16] came to 10000 nM; in [11], 460 nM.

As for `CC[C@H](Oc1ccc(-c2cccc3ccccc23)cc1)C(=O)O.NC1CCCCC1`, the EC50 was determined as 11000 nM in test [16] and 183 nM in [11].

`CC[C@@H](Oc1ccc(-c2cccc3ccccc23)cc1)C(=O)O.NC1CCCCC1`: the EC50 in test [16] is 7300 nM; in test [11], 1420 nM.

These data come from ChEMBL document CHEMBL5608169, “A chemical modification of a peroxisome proliferator-activated receptor pan agonist produced a shift to a new dual alpha/gamma partial agonist endowed with mitochondrial pyruvate carrier inhibition and antidiabetic properties” (Eur J Med Chem, 2024).
